“And” between values parts separate entries of the source, which are not always exact repeats. Equal entries are not always repeated.
Columns and labels:
[1] = (§1) Functional metabolic assay to measure dose dependent changes in cell viability from drug treatment in HeLa-ACE2 cells. Hela-ACE2 cells are seeded prior to drug treatment, then incubated in MTT (3-[4,5-dimethylthiazol-2-yl]-2,5- diphenyltetrazolium bromide) labelling reagent and SDS. Absorbance is measured at 560 and 750 nm and analyzed by Gen5 software. The assay has been performed by Icahn School of Medicine at Mount Sinai.; type: toxicity, cell-based; details: human
[2] = as §1, with “iPSC-Pneumocyte” for “HeLa-ACE2”, “The” for “Hela-ACE2”, “seeded” for “seeded prior to drug treatment,”, “labeling” for “labelling”; type: toxicity, cell-based; details: human
[3] = Functional metabolic assay to measure dose dependent changes in cell viability from drug treatment in Vero E6/TMPRSS2 cells (cotreated with P-gp inhibitor, Elacridar). Cells are treated with antiviral candidates that have been serially diluted. Cytotoxicity is reported via measuring absorbance and analysis of MTT/MTS assays in uninfected cells. The assay has been performed by Icahn School of Medicine at Mount Sinai.; type: toxicity, cell-based, VeroE6/TMPRSS2; details: chlorocebus sabaeus
[4] = Vero E6/TMPRSS2 cells, with Elacridar (P-gp inhibitor), concentration not stated

| SMILES | CC10 ([1]; hela-ace2) | CC50 ([2]; iPSC-Pneumocyte cells) | CC10 ([2]; pneumocyte) | CC50 ([1]; HeLa-ACE2 cells) | further results |
| --- | --- | --- | --- | --- | --- |
| CC(C)[C@@H](Nc1ncnc2[nH]ccc12)c1ccc2c(c1)S(=O)(=O)CCC2 | > 50 µM and > 20 µM | > 50 µM | > 50 µM |  | CC50 ([1]; hela-ace2): > 50 µM |
| CC(C)[C@@H](Nc1ncnc2[nH]c(C(=O)N[C@H]3CCN(C)C3)cc12)c1ccc2c(c1)S(=O)(=O)CCC2 | > 20 µM | > 50 µM | > 50 µM | > 20 µM |  |
| CCNC(=O)c1cc2c(N[C@@H](c3ccc4c(c3)S(=O)(=O)CCO4)C(C)C)ncnc2[nH]1 | > 20 µM |  |  | > 20 µM |  |
| Cc1nn(C)cc1-c1cc2c(N[C@@H](c3ccc4c(c3)S(=O)(=O)CCC4)C(C)C)ncnc2[nH]1 | > 20 µM |  |  | > 20 µM |  |
| CCNC(=O)c1cc2c(N[C@@H](c3ccc4c(c3)S(=O)(=O)CCC4)C(C)C)ncnc2[nH]1 | > 20 µM |  |  | > 20 µM |  |
| Cn1ncc(-c2cc3c(N[C@@H](c4ccc5c(n4)OCCO5)C(C)(C)C)ncnc3[nH]2)c1C#N | > 10 µM and > 20 µM |  |  | > 10 µM | CC50 ([1]; hela-ace2): > 20 µM |
| CNC(=O)c1cc2c(N[C@@H](c3ccc4c(c3)OCCO4)C(C)C)ncnc2[nH]1 | > 50 µM | > 50 µM | > 50 µM | > 50 µM |  |
| CNC(=O)c1cccc(-c2cc3c(N[C@@H](c4ccc5c(c4)S(=O)(=O)CCC5)C(C)C)ncnc3[nH]2)c1 | > 20 µM |  |  | > 20 µM |  |
| CC(C)[C@H](Nc1ncnc2[nH]c(-c3cnn(CC(N)=O)c3)cc12)c1ccc2c(c1)S(=O)(=O)CCC2 | > 20 µM | > 50 µM | > 50 µM | > 20 µM |  |
| Cc1nn(C)cc1-c1cc2c(N[C@H](c3ccc4c(c3)S(=O)(=O)CCC4)C(C)C)ncnc2[nH]1 | > 20 µM |  |  | > 20 µM | CC50 [3, 4]: > 5 µM; CC10 ([3]; veroe6/tmprss2): > 5 µM |
| CC(C)[C@@H](Nc1ncnc2[nH]c(C(=O)N[C@@H]3CCN(C)C3)cc12)c1ccc2c(c1)S(=O)(=O)CCC2 | > 20 µM | < 0.206 µM | < 0.206 µM | > 20 µM | CC50 [3, 4]: > 5 µM; CC10 ([3]; veroe6/tmprss2): > 5 µM |
| CC(C)[C@@H](Nc1ncnc2[nH]c(-c3cnn(C)c3)cc12)c1ccc2c(c1)S(=O)(=O)NCC2 | > 20 µM |  |  | > 20 µM |  |
| COc1ccc([C@H](Cc2nnn[nH]2)NC(=O)c2ncnc3[nH]ccc23)cc1 | > 20 µM |  |  | > 20 µM | CC50 [3, 4]: > 5 µM; CC10 ([3]; veroe6/tmprss2): > 5 µM |
| CCNC(=O)c1cc2c(N[C@@H](c3ccc4c(c3)OCCO4)C(C)C)ncnc2[nH]1 |  | < 0.206 µM | 1.29 µM |  |  |
| CC(C)[C@H](Nc1ncnc2[nH]c(-c3cnn(C)c3C#N)cc12)c1ccc2c(c1)S(=O)(=O)CCC2 | > 20 µM |  |  | > 20 µM |  |
| CNCc1cc(-c2cc3c(N[C@@H](c4ccc5c(c4)S(=O)(=O)CCC5)C(C)C)ncnc3[nH]2)co1 | > 20 µM | > 50 µM | > 50 µM | > 20 µM | CC50 [3, 4]: > 5 µM; CC10 ([3]; veroe6/tmprss2): > 5 µM |
| CC(C)(C)[C@H](Nc1ncnc2[nH]c(-c3cnn(CC(N)=O)c3)cc12)c1ccc2c(c1)OCCO2 | > 20 µM |  |  | > 20 µM |  |
| CNCc1cc(-c2cc3c(N[C@H](c4ccc5c(c4)S(=O)(=O)CCC5)C(C)C)ncnc3[nH]2)co1 | > 20 µM |  |  | > 20 µM |  |
| CC(C)[C@H](Nc1ncnc2[nH]c(-c3cnn(C)c3C#N)cc12)c1ccc2c(n1)NC(=O)CO2 | > 20 µM |  |  | > 20 µM |  |
| CNCc1cc(-c2cc3c(N[C@@H](c4ccc5c(c4)S(=O)(=O)NCC5)C(C)C)ncnc3[nH]2)co1 | > 20 µM | > 50 µM | > 50 µM | > 20 µM |  |
| CC(C)[C@@H](Nc1ncnc2[nH]ccc12)c1ccc2c(c1)S(=O)(=O)CCO2 | > 20 µM |  |  | > 20 µM |  |
| CC(C)[C@@H](Nc1ncnc2[nH]ccc12)c1ccc2c(c1)NC(=O)CO2 | > 50 µM | > 50 µM | > 50 µM | > 50 µM |  |
| C[C@H](C(=O)O)[C@@H](NC(=O)c1ncnc2[nH]ccc12)c1ccc(Br)cc1 | > 20 µM |  |  | > 20 µM | CC50 [3, 4]: > 5 µM; CC10 ([3]; veroe6/tmprss2): > 5 µM |
| COc1ccc([C@@H](Cc2nnn[nH]2)NC(=O)c2ncnc3[nH]ccc23)cc1 | > 20 µM |  |  | > 20 µM |  |
| CC(C)[C@H](Nc1ncnc2[nH]c(-c3cnn(C)c3C#N)cc12)c1ccc2c(c1)NC(=O)CO2 | > 20 µM |  |  | > 20 µM |  |
| CCNC(=O)c1cc2c(N[C@@H](c3ccc4c(c3)S(=O)(=O)NCC4)C(C)C)ncnc2[nH]1 | > 20 µM |  |  | > 20 µM |  |
| CC(C)[C@H](Nc1ncnc2[nH]c(-c3cnn(C)c3)cc12)c1ccc2c(c1)S(=O)(=O)CCC2 | > 20 µM |  |  | > 20 µM |  |

| SMILES | CC10 ([1]; hela-ace2) | CC50 ([2]; iPSC-Pneumocyte cells) | CC10 ([2]; pneumocyte) | CC50 ([1]; HeLa-ACE2 cells) | further results |
| --- | --- | --- | --- | --- | --- |
| CNC(=O)Cn1cc(-c2cc3c(N[C@@H](c4ccc5c(c4)S(=O)(=O)CCC5)C(C)C)ncnc3[nH]2)cn1 | > 20 µM | 1.7 µM | 1.528 µM | > 20 µM | CC50 [3, 4]: > 5 µM; CC10 ([3]; veroe6/tmprss2): > 5 µM |
| CC(C)[C@H](Nc1ncnc2[nH]c(-c3cnn(C)c3C#N)cc12)c1ccc2c(n1)OCCO2 | > 20 µM and > 50 µM |  |  | > 20 µM | CC50 ([1]; hela-ace2): 12.5 µM; CC50 [3, 4]: > 5 µM; CC10 ([3]; veroe6/tmprss2): > 5 µM |
| CC(C)[C@@H](Nc1ncnc2[nH]c(-c3cnn(C)c3C#N)cc12)c1ccc2c(c1)OCCO2 | > 50 µM |  | 24.479 µM and > 50 µM | > 50 µM | CC50 ([2]; pneumocyte): 18.1 µM and > 50 µM |
| CC(C)[C@H](Nc1ncnc2[nH]ccc12)c1ccc2c(c1)S(=O)(=O)CCC2 | > 20 µM |  |  | > 20 µM | CC50 ([3]; veroe6/tmprss2): > 20 µM |
| CC(C)[C@@H](Nc1ncnc2[nH]cc(C(=O)NC3CC3)c12)c1ccc2c(c1)S(=O)(=O)CCC2 | > 20 µM |  |  | > 20 µM |  |
| CC(C)[C@@H](Nc1ncnc2[nH]c(-c3ccc4nnn(C)c4c3)cc12)c1ccc2c(c1)S(=O)(=O)CCC2 | > 20 µM |  |  | > 20 µM |  |
| CC(C)[C@@H](Nc1ncnc2[nH]c(-c3cnn(C)c3)cc12)c1ccc2c(c1)S(=O)(=O)CCC2 | > 20 µM | > 50 µM | > 50 µM | > 20 µM |  |
| Cc1ncc(-c2cc3c(N[C@@H](c4ccc5c(c4)OCCO5)C(C)C)ncnc3[nH]2)cn1 | > 20 µM | > 50 µM | > 50 µM | > 20 µM |  |
| CC(C)[C@@H](Nc1ncnc2[nH]c(-c3cnn(CC(N)=O)c3)cc12)c1ccc2c(n1)OCCO2 |  | > 50 µM | > 50 µM |  |  |
| CNC(=O)Cn1cc(-c2cc3c(N[C@H](c4ccc5c(c4)S(=O)(=O)CCC5)C(C)C)ncnc3[nH]2)cn1 | > 20 µM | > 50 µM | > 50 µM | > 20 µM |  |
| CC(C)[C@@H](Nc1ncnc2[nH]c(-c3ccc4cncn4c3)cc12)c1ccc2c(c1)S(=O)(=O)CCC2 | > 20 µM |  |  | > 20 µM |  |
| CC(C)[C@@H](Nc1ncnc2[nH]c(-c3cncc(S(C)(=O)=O)c3)cc12)c1ccc2c(c1)S(=O)(=O)CCC2 | > 20 µM |  |  | > 20 µM |  |
| CC(C)(C)[C@@H](Nc1ncnc2[nH]c(-c3cnn(CC(N)=O)c3)cc12)c1ccc2c(n1)OCCO2 | > 20 µM | > 50 µM | > 50 µM | > 20 µM |  |
| CC(C)[C@@H](Nc1ncnc2[nH]c(C(N)=O)cc12)c1ccc2c(c1)OCCO2 | < 0.082 µM | > 50 µM | > 50 µM | < 0.082 µM |  |
| CC(C)[C@@H](Nc1ncnc2[nH]c(-c3cnn(CC(N)=O)c3)cc12)c1ccc2c(c1)S(=O)(=O)CCC2 | > 20 µM |  |  | > 20 µM |  |
| CNC(=O)c1cc2c(N[C@@H](c3ccc4c(c3)S(=O)(=O)CCC4)C(C)C)ncnc2[nH]1 | > 20 µM |  |  | > 20 µM |  |
| CNC(=O)c1cccc(-c2cc3c(N[C@H](c4ccc5c(c4)S(=O)(=O)CCC5)C(C)C)ncnc3[nH]2)c1 | > 20 µM |  |  | > 20 µM |  |
| CC(C)[C@@H](Nc1ncnc2[nH]c(-c3cnn(CC(=O)N(C)C)c3)cc12)c1ccc2c(c1)OCCO2 | > 20 µM |  |  | > 20 µM |  |
| CC(C)[C@@H](Nc1ncnc2[nH]c(-c3cnn(CC(=O)N(C)C)c3)cc12)c1ccc2c(c1)S(=O)(=O)CCC2 | > 20 µM |  |  | > 20 µM |  |
| CC(C)[C@@H](Nc1ncnc2[nH]c(-c3cnn(C)c3C#N)cc12)c1ccc2c(n1)NC(=O)CO2 | > 20 µM |  |  | > 20 µM |  |
| CC(C)[C@@H](Nc1ncnc2[nH]c(-c3cnn(C)c3C#N)cc12)c1ccc2c(c1)S(=O)(=O)CCC2 | > 20 µM | > 50 µM | > 50 µM | > 20 µM |  |
| Cn1ncc(-c2cc3c(N[C@@H](c4ccc5c(c4)OCCO5)C(C)(C)C)ncnc3[nH]2)c1C#N | > 20 µM | 48.6 µM | > 50 µM | > 20 µM |  |
| C[C@@H](C(=O)O)[C@H](NC(=O)c1ncnc2[nH]ccc12)c1ccc(Br)cc1 | > 20 µM |  |  | > 20 µM |  |
| CCNC(=O)c1cc2c(N[C@H](c3ccc4c(c3)OCCO4)C(C)C)ncnc2[nH]1 | > 20 µM |  |  | > 20 µM |  |
| CC(C)[C@@H](Nc1ncnc2[nH]c(-c3cnn(C)n3)cc12)c1ccc2c(c1)OCCO2 | > 20 µM | < 0.206 µM | < 0.206 µM | > 20 µM |  |
| CC(C)[C@@H](Nc1ncnc2[nH]c(-c3cnn(CC(N)=O)c3)cc12)c1ccc2c(c1)OCCO2 | > 50 µM | > 50 µM | > 50 µM | > 50 µM |  |
